# Experimental data as given in ChEMBL document CHEMBL1201862, “PubChem BioAssay data set” (2004).
# The source made the active and inactive calls.
# Columns and labels:
# [1] = potency of ADAM10 substrate cleavage blockers – biochemical, QFRET, dose response (AID 743254);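 also: ADAM10 enzyme with the DM2 quenched FRET peptide as substrate; EDANS fluorescence gain as the protease cuts the substrate; inhibitor potency against ADAM10 proteolytic activity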
# [2] = target: T1, Streptokinase A (Streptococcus pyogenes serotype M1, UniProt P10520); assay: viability-normalized secreted streptokinase activity reduction – plasminogen activation absorbance, OD405, dose response (AID 1914); type: functional, Streptococcus pyogenes M1 GAS;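 also: secreted streptokinase activity via plasminogen activation per viability signal from cell pellet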
# T1 sequence (P10520 whole entry): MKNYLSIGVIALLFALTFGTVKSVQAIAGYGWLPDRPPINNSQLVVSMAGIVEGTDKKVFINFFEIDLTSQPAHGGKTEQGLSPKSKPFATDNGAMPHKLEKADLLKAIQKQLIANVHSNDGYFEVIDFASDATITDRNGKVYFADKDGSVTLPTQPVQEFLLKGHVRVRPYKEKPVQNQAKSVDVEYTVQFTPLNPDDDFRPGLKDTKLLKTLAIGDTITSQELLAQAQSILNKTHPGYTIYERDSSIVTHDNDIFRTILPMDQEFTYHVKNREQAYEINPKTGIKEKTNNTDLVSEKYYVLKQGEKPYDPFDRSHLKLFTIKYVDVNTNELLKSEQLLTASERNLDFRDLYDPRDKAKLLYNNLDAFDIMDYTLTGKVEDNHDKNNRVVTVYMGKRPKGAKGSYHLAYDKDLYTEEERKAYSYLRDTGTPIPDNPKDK
# [3] = system: Streptococcus sp. 'group A'; assay: Streptococcus pyogenes SK(-)GAS viability under kanamycin – luminescence, BacTiterGlo, confirmation, counter-screen for streptokinase expression inhibitor project, dose response (AID 1900); type: functional, organism-based
# [4] = system: Streptococcus; assay: GAS UMAA2166 growth inhibition – luminescence, BacTiterGlo, counter-screen for streptokinase expression inhibitor project, dose response (AID 1915); type: functional, organism-based;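 also: potency for reduction of bacterial viability or growth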
# [5] = target: Disintegrin and metalloproteinase domain-containing protein 17 (Homo sapiens, UniProt P78536); assay: inhibition of ADAM17 substrate cleavage – biochemical, quenched FRET substrate, counter-screen for ADAM10 exosite inhibitor project, dose response (AID 743253)
# Sequence of Disintegrin and metalloproteinase domain-containing protein 17 (P78536 whole entry, the tested form may be a part): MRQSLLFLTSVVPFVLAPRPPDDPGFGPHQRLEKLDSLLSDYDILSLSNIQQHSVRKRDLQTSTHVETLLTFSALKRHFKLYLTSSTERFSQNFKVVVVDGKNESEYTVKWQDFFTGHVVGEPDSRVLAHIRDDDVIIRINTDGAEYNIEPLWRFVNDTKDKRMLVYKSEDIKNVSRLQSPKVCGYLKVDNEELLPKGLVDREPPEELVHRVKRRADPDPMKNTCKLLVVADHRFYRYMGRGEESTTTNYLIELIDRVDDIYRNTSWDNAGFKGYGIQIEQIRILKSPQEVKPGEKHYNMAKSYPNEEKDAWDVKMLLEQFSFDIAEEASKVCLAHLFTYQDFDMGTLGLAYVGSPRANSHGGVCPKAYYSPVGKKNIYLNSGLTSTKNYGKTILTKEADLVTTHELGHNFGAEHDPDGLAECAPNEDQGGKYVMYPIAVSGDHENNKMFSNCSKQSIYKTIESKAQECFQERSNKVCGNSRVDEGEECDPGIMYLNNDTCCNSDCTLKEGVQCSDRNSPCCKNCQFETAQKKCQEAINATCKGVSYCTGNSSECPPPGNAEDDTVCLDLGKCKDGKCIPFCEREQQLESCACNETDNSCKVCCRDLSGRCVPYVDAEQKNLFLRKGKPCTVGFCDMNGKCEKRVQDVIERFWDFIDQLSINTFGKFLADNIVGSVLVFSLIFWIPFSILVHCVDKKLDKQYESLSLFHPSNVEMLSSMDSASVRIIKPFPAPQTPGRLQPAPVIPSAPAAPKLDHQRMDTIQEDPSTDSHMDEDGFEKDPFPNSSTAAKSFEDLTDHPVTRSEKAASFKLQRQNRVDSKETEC
# [6] = target: 72 kDa type IV collagenase (Homo sapiens, UniProt P08253); assay: Dose Response validation of uHTS RPN11 inhibitor hits using a MMP-2 Fluorescence assay.; type: functional
# Sequence of 72 kDa type IV collagenase (P08253 whole entry): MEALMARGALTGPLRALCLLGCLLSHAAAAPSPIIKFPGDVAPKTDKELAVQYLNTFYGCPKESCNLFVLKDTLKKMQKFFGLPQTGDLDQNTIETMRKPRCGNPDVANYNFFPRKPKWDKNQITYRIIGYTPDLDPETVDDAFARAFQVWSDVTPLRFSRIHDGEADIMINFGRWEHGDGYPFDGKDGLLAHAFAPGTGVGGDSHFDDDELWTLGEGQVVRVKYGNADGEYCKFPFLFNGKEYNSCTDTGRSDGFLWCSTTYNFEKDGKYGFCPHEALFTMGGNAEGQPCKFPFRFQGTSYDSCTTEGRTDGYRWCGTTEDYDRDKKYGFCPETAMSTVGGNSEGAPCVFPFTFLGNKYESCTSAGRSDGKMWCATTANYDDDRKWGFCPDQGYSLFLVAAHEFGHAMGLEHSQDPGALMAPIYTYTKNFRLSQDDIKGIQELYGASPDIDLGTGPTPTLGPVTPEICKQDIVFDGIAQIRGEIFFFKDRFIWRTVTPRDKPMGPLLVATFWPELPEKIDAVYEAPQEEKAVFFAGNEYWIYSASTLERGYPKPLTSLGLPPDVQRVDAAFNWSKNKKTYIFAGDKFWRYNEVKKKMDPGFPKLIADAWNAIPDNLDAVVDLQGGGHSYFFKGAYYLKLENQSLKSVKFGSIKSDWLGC
# [7] = target: 26S proteasome non-ATPase regulatory subunit 14 (Homo sapiens, UniProt O00487); assay: inhibition of proteasome subunit RPN11 – biochemical, fluorescence polarization, uHTS hits, confirmation (AID 602368); type: functional
# Sequence of 26S proteasome non-ATPase regulatory subunit 14 (O00487 whole entry): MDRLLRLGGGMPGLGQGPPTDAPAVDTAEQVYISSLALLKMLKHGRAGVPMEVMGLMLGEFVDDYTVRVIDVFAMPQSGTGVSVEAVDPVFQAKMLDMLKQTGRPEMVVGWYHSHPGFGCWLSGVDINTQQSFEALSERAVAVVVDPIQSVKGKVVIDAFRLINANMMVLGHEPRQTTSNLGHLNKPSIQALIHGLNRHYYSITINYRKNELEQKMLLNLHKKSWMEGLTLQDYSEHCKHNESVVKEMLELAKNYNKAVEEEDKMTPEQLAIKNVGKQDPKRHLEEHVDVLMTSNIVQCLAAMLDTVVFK
# [8] = target: Prothrombin (Bos taurus, UniProt P00735); assay: thrombin protease inhibitors – biochemical, fluorescence polarization, uHTS hits, dose response (AID 602369); type: functional
# [9] = NIH-3T3 fibroblast cytotoxicity, dose response, cytotoxicity control, cell-based, fluorescence, Alamar Blue, secondary assay (AID 2327); type: functional;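 also: NIH-3T3 mouse fibroblasts cultured with fluconazole at 8 µg/mL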
# [10] = system: INS1; assay: INS-1E survival protection against cytokine death – cell-based, luminescence, retest, dose response (AID 449756); type: functional; details: Rattus norvegicus;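 also: cell death triggered by IL-1 beta plus TNF-alpha plus IFN-gamma mixture; protective hits raise ATP signal compared with cytokine alone wells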
# [11] = target: Heat shock protein HSP 90-alpha (Homo sapiens, UniProt P07900); type: functional, organism-based
# [12] = fluconazole-exposed Candida albicans growth modulators – fluorescence, retest, confirmation (AID 2467); type: functional, cell-based
# [13] = target: Cytochrome P450 2D6 (Homo sapiens, UniProt P10635);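 also: CYP2D6 member of a cytochrome P450 panel assay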
# Sequence of Cytochrome P450 2D6 (P10635 whole entry): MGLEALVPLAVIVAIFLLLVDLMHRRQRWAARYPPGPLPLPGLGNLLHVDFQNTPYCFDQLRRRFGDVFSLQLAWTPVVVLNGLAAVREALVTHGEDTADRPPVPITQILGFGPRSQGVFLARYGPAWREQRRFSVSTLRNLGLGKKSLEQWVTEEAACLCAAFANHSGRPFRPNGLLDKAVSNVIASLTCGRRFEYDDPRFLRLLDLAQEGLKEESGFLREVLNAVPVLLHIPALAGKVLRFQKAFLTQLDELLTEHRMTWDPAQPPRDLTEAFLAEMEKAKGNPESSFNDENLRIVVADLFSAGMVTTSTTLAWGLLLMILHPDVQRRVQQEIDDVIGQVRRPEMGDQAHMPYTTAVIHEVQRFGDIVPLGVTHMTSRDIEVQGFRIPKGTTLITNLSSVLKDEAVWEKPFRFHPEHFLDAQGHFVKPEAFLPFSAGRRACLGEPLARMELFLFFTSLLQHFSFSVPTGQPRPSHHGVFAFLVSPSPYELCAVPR
# [14] = system: H4; assay: Luminescence Cell-Based Dose Response HTS to Identify Activators of 5'UTR Stem-Loop Driven Prion Protein mRNA Translation in H4 Neuroglioblastoma Cells. [Related pubchem assays: 1829 (Project Summary), 1814 (Primary HTS)]; type: functional; details: Homo sapiens
# [15] = Luminescence Cell-Based Dose Response HTS to Identify Activators of Luciferase Translation or Activity in H4 […] Cells. [Related pubchem assays: 1829 (Project Summary), 1814 (Primary HTS)]; type: functional
# [16] = Luminescence Cell-Based Dose Confirmation HTS to Identify Activators of 5'UTR Stem-Loop Driven Alpha-Synuclein mRNA Translation in H4 Neuroglioblastoma Cells. [Related pubchem assays: 1829 (Project Summary), 1814 (Primary HTS)]; type: functional
# [17] = target: T2, Rac GTPase-activating protein 1 (Homo sapiens, UniProt Q9H0H5); assay: blockers of MgcRacGAP-driven Rac1 GTP hydrolysis – biochemical, ADP Hunter fluorescence, primary and confirmatory, confirmation (AID 624330); type: functional
# T2 sequence (Q9H0H5 whole entry): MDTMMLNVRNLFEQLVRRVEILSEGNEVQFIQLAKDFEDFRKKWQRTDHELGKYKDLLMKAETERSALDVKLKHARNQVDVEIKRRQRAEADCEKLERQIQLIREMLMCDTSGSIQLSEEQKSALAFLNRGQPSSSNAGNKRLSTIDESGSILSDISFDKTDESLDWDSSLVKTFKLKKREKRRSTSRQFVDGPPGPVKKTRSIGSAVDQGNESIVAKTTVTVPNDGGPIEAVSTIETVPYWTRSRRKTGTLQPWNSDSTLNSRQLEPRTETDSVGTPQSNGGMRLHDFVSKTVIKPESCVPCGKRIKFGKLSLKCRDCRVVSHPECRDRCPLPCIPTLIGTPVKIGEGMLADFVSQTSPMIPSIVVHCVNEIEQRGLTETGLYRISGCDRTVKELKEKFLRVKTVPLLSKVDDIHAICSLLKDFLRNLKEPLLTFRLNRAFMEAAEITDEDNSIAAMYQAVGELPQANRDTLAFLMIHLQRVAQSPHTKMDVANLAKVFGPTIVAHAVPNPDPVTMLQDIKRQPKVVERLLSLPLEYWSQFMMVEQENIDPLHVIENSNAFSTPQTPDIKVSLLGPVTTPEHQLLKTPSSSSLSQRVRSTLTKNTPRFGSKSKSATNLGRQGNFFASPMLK
# [18] = cells; type: functional, cell-based
# [19] = cells; type: functional, cell-based; remark: listed apart in the source
# [20] = target: T3, Cysteine protease ATG4B (Homo sapiens, UniProt Q9Y4P1); type: functional;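 also: Fluorescence-based dose-response confirmation assay measuring inhibition of ATG4B activity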
# T3 sequence (Q9Y4P1 whole entry): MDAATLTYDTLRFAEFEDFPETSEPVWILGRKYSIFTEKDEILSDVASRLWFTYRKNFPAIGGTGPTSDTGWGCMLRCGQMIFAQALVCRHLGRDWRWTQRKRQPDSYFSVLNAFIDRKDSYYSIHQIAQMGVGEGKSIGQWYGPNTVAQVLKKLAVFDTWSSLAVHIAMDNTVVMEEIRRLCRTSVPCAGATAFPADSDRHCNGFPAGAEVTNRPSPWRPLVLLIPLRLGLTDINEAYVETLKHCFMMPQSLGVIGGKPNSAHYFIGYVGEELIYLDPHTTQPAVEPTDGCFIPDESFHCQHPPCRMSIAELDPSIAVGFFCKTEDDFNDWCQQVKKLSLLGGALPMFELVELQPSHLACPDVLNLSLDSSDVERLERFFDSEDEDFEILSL
# [21] = target: Phospholipase A2 (Homo sapiens, UniProt P04054); type: functional;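 also: confirmatory dose-response counterscreen on phospholipase A2, testing hits that came from an ultra-high-throughput screen for ATG4B inhibitors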
# Sequence of Phospholipase A2 (P04054 whole entry): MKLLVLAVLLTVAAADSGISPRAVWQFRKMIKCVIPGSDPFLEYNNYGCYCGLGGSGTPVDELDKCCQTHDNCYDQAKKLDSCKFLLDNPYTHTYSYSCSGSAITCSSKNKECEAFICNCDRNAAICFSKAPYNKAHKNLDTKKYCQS
# [22] = target: T4, Aminopeptidase N (Plasmodium falciparum FcB1/Columbia, UniProt O96935); assay: malaria alanyl aminopeptidase activity blockers – biochemical, fluorogenic H-Leu-NHMec substrate, 1536-well (AID 1445); parameters: species or system Plasmodium falciparum 3D7, 3D7
# T4 sequence (O96935 whole entry): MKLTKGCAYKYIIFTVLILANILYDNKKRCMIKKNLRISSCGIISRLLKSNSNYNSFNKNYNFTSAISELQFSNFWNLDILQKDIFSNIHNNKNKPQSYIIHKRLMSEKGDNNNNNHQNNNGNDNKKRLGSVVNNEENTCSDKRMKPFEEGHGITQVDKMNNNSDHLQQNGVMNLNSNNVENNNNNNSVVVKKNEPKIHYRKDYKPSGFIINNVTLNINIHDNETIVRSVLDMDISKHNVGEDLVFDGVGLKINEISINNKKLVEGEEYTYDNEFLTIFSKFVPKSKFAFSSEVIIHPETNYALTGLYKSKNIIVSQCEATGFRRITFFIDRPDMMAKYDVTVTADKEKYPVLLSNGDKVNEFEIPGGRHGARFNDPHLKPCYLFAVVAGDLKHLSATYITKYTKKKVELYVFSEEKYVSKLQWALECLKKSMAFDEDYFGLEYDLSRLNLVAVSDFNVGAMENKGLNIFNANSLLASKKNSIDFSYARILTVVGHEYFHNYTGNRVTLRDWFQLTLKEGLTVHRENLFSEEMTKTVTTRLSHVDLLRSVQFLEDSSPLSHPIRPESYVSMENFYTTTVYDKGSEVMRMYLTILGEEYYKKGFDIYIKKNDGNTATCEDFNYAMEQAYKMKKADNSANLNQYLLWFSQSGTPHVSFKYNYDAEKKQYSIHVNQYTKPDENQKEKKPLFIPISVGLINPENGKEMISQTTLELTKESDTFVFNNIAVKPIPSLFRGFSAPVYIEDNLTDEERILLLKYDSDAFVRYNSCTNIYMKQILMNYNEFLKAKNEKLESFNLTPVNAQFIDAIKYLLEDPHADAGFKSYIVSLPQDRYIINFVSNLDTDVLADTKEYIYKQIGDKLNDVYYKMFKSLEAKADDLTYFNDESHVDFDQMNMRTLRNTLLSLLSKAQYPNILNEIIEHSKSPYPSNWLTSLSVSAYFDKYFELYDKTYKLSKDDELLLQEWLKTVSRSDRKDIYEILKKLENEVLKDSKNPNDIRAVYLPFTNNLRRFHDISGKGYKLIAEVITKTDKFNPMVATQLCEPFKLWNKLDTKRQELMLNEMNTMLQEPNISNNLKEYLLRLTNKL
smiles,measurement,setting,value
Oc1cccc(/C=N/N(Cc2ccccc2)c2ccccc2)c1,IC50,[1],> 7.73 µM (active)
same,EC50,[2],> 150 µM (not active)
same,EC50,[3],6.42 µM (active)
same,EC50,[4],7.85 µM (active)
same,IC50,[5],> 69.5 µM (inactive)
CCN(CC)c1ccc(/C=N/NC(=O)c2cccc(S(=O)(=O)Nc3ccccc3OC)c2)cc1,IC50,[6],> 100 µM (inactive)
same,IC50,[7],26.3 µM (active)
same,IC50,[8],33.2 µM (active)
COc1ccc(C(=O)NC(=S)NNC(=O)c2cnccn2)cc1,EC50,[9],9.88 µM (active)
same,AC50,[10],0.933 µM (active)
same,AC50,[11],2.71 µM (active)
same,EC50,[12],2.02 µM (active)
NC(=Nc1cccc2ccccc12)Nc1nc(O)c2c(n1)CCC2,IC50,[6],> 100 µM (inactive)
same,AC50,[13],11.2 µM (inconclusive)
same,EC50,[14],> 120 µM (not active)
same,IC50,[7],24.3 µM (active)
same,EC50,[15],> 120 µM (not active)
same,EC50,[16],> 120 µM (not active)
same,IC50,[8],> 100 µM (inactive)
C#CCN(C[C@@H]1[C@@H](OC(=O)NCc2ccc(OC)c(OC)c2)[C@@H](OC(=O)NCc2ccc(OC)c(OC)c2)Cn2c(=O)n(CCCCCC)c(=O)n21)S(=O)(=O)c1ccc(C)cc1,IC50,[1],> 69.5 µM (inactive)
same,IC50,[5],> 69.5 µM (inactive)
COc1cc(/C=C2/C(=O)NN(c3ccc(Cl)cc3)C2=O)cc(Br)c1O,IC50,[6],54.8 µM (active)
same,IC50,[17],103 µM (active)
same,IC50,[7],14.5 µM (active)
same,IC50,[8],60.6 µM (active)
C=CCn1c(C)cc(C(=O)CSc2nnc(NCc3ccccc3)s2)c1C,AC50,[11],4.03 µM (active)
CCOC(=O)c1ccc(N2CN(CCc3ccccc3)CN=C2S)cc1,EC50,[18],> 29.9 µM (inactive)
same,IC50,[19],> 29.9 µM (inactive)
Cc1cccc(C)c1OCc1nc2ccccc2c(=O)n1/N=C/c1ccc(OCC(=O)O)cc1,IC50,[20],14.7 µM (active)
same,IC50,[21],9.81 µM (active)
same,IC50,[22],< 1 µM (active)
N=C1/C(=C\c2ccc(-c3cccc(Cl)c3)o2)C(=O)N=C2SC=C(c3ccccc3)N12,IC50,[6],> 100 µM (inactive)
same,IC50,[7],27.8 µM (active)
same,IC50,[8],52.9 µM (active)
